These are literature values, as cited in patent US20050020601A1, “Novel pyrazinones as CRF1 receptor antagonists” (Pfizer Inc, priority 2003, published 2005).

Data set [1] deals with cultured human epidermal keratinocyte cells.
Another data set has as its system rats. Particulars: for effect on the "anxiogenic" effects/actions of CRF: conflict test.

Turning to `CCN(c1nc(C)cc(N2CC=C(c3cccc(F)c3)CC2)n1)c1ccc(C(C)C)cc1SC` [2-[N-(2-methylthio-4-isopropylphenyl)-N-ethylamino]-4-[4-(3-fluorophenyl)-1,2,3,6-tetrahydropyridine-1-yl]-6-methylpyrimidine], in data set [1], the keratinocyte cell proliferation result is given as “keratinocyte cell proliferation promoting effect”.

With `CNC(=O)c1cc2c(cn1)[nH]c1ccccc12` [FG 7142], in the data set with rats, the “effect on the "anxiogenic" effects/actions of CRF” value is reported as “enhanced the actions of CRF”.

As for `CCOC(=O)c1ncn2c1CN(C)C(=O)c1cc(F)ccc1-2` [Ro 15-1788], in the data set with rats, the “effect on the "anxiogenic" effects/actions of CRF” value is “reversed the effects of CRF in a dose-dependent manner”. In addition, the behavioral activity alone result with rats (operant conflict test, compound alone) is “without behavioral activity alone”.
